In ChEMBL document CHEMBL1147711, “Tetrazole thioacetanilides: potent non-nucleoside inhibitors of WT HIV reverse transcriptase and its K103N mutant” (Bioorg Med Chem Lett, 2006):

What was measured:
[1] = target: Human immunodeficiency virus type 1 reverse transcriptase (Human immunodeficiency virus 1, UniProt Q72547); assay: Inhibition of HIV1 wild type Reverse Transcriptase
[2] = test system: Human immunodeficiency virus 1; assay: Antiviral activity against HIV1 in presence of 10% FBS; format: functional; conditions: read-out: CIC95
[3] = test system: Human immunodeficiency virus type 1 reverse transcriptase (Human immunodeficiency virus 1), Q72547 [UNDEFINED MUTATION]; assay: Ratio of K103N mutant IC50 to wild type Reverse Transcriptase IC50
[4] = test system: Human immunodeficiency virus 1; assay: Antiviral activity against HIV1 in presence of 50% NHS; format: functional; conditions: read-out: CIC95
[5] = Oral bioavailability in rat at 3 mg/kg, iv and po; format: ADME, organism-based; conditions: in vivo

SMILES	IC50 [1] [nM]	IC95 [2] [nM]	Ratio [3]	IC95 [4] [nM]	bioavailability [5] [%]
Cc1cc(C)c(-n2nnnc2SCC(=O)Nc2cccc([N+](=O)[O-])c2)c(C)c1	200	> 5000			
Cc1cc(C)c(-n2nnnc2SCC(=O)Nc2ccccc2Br)c(C)c1	7	100	5	810	
Cc1c(Cl)cccc1-n1nnnc1SCC(=O)Nc1ccccc1[N+](=O)[O-]	3	8	3	31	
Cc1cc(C)c(-n2nnnc2SCC(=O)Nc2ccccc2Cl)c(C)c1	5		3		
Cc1cccc(-n2nnnc2SCC(=O)Nc2ccccc2[N+](=O)[O-])c1C	18	63	1	250	
Cc1cc(C)c(-n2nnnc2SCC(=O)Nc2ccccc2[N+](=O)[O-])c(C)c1	3	11	3	90	0
O=C(CSc1nnnn1-c1cc(Cl)ccc1Cl)Nc1ccccc1[N+](=O)[O-]	4	31	1	200	
O=C(CSc1nnnn1-c1ccc(Cl)c(Cl)c1)Nc1ccccc1[N+](=O)[O-]	230	> 5000	2	> 5000	
Cc1cc(C)c(-n2nnnc2SCC(=O)Nc2ccc(C(N)=O)cc2Cl)c(C)c1	3	8	2	16	
Cc1cc(C)c(-n2nnnc2SCC(=O)Nc2ccc(C(N)=O)cc2C)c(C)c1	55	31	1	62	
Cc1cc(C)c(-n2nnnc2SCC(=O)Nc2ccc(S(N)(=O)=O)cc2C)c(C)c1	54	50	1	580	60
Cc1cc(C)c(-n2nnnc2SCC(=O)Nc2ccc(C(=O)NCCCN(C)C)cc2Cl)c(C)c1	5	8	2	16	
Cc1cc(C)c(-n2nnnc2SCC(=O)Nc2ccc(S(N)(=O)=O)cc2Cl)c(C)c1	4	16	3	62	33
Cc1ccc(Cl)cc1-n1nnnc1SCC(=O)Nc1ccccc1[N+](=O)[O-]	23	78	1	1250	
Cc1cc(C)c(-n2nnnc2SCC(=O)Nc2c(Cl)cccc2Cl)c(C)c1	> 5000	> 5000		> 5000	
Cc1cc(C)c(-n2nnnc2SCC(=O)Nc2ccc([N+](=O)[O-])cc2C)c(C)c1	165	1250	3	> 5000	
O=C(CSc1nnnn1-c1cc(F)ccc1Cl)Nc1ccccc1[N+](=O)[O-]	10	63	1	250	
Cc1cc(C)c(-n2nnnc2SCC(=O)Nc2ccc([N+](=O)[O-])cc2)c(C)c1	> 5000	> 5000		> 5000	
Cc1cc(C)c(-n2nnnc2SCC(=O)Nc2ccc([N+](=O)[O-])cc2Cl)c(C)c1	22	78	5	1250	
NS(=O)(=O)c1ccc(NC(=O)CSc2nnnn2-c2cc(Cl)ccc2Cl)c(Cl)c1	3	16	1	125	33
Cc1cc(C)c(-n2nnnc2SCC(=O)Nc2ccccc2I)c(C)c1	31	312	3	1250	
Cc1cc(C)c(-n2nnnc2SCC(=O)Nc2ccc(Cl)cc2[N+](=O)[O-])c(C)c1	4	31	3	400	
Cc1ccc(-n2nnnc2SCC(=O)Nc2ccccc2[N+](=O)[O-])c(Br)c1	3	8	3	62	
Cc1cc(C)c(-n2nnnc2SCC(=O)Nc2ccc(OCCCN(C)C)cc2Cl)c(C)c1	13	62	5	62	
NS(=O)(=O)c1ccc(NC(=O)CSc2nnnn2-c2cccc(Cl)c2Cl)c(Cl)c1	9	62	1	250	
Cc1cc(C)c(-n2nnnc2SCC(=O)Nc2ccc(S(N)(=O)=O)cc2)c(C)c1	1250	1250		> 5000	
O=C(CSc1nnnn1-c1c(Cl)cccc1Cl)Nc1ccccc1[N+](=O)[O-]	4	15	1	62	
O=C(CSc1nnnn1-c1cccc(Cl)c1Cl)Nc1ccccc1[N+](=O)[O-]	12	78	1	125	
